Laboratory results taken from patent publication US20060166996A1, “Phthalazine derivatives as phosphodiesterase 4 inhibitors” (Zambon Group S.P.A., priority 2002, published 2006).
pIC50: −log10 of the molar value. ≈ marks a conversion by molar mass, not a printed value. Where two headings read alike, the source gives them in different places.

Legend:
TNFα release = TNFα release in whole human blood (LPS, ELISA); type: cell-based
Experimental: The blood samples obtained from healthy volunteers were collected in heparinised tubes and diluted 1:5 with RPMI 1640 without serum addition.
The test was carried out in 96-well plates and samples containing 150 μl of diluted blood and 150 μl of RPMI 1640 with control vehicle or with different concentration of the compounds of the present invention were incubated at 37° C. in a 5% CO2 humidified atmosphere for 30 minutes.
The whole blood in the assay samples was diluted 1:10 (v/v).
The samples were stimulated with LPS (lipopolysaccharide from E. Coli: serotype B 0:55, Sigma) 0.25 μg/ml and incubated for 24 hours.
After centrifugation, the supernatants were collected for TNFα levels determination by a commercially available ELISA kit (Biosource).
The test objects were dissolved in DMSO at 10^−2 M and further diluted in RPMI 1640. […] Each compound was tested in duplicate at nine concentrations and the data obtained were further confirmed using blood samples from different donors.
The percent inhibition of TNFα production at each concentration was calculated and IC50 was determined using a 4-parameters logistic equation (Origin calculation program, Microcal Software Inc.)

PDE 2 = target: T1, PDE 2 (Rattus norvegicus, UniProt Q01062); test: PDE 2 enzyme inhibition (SPA); type: biochemical; settings: PDE 2 from murine PC12 cells; read-out: PDE 2 IC 50
T1 construct: Fractions containing PDE 2 enzyme activity were pooled; endogenous in cells; host or cells: PC12 cells (Istituto Zooprofilattico Brescia)
T1 sequence (Q01062 1-928): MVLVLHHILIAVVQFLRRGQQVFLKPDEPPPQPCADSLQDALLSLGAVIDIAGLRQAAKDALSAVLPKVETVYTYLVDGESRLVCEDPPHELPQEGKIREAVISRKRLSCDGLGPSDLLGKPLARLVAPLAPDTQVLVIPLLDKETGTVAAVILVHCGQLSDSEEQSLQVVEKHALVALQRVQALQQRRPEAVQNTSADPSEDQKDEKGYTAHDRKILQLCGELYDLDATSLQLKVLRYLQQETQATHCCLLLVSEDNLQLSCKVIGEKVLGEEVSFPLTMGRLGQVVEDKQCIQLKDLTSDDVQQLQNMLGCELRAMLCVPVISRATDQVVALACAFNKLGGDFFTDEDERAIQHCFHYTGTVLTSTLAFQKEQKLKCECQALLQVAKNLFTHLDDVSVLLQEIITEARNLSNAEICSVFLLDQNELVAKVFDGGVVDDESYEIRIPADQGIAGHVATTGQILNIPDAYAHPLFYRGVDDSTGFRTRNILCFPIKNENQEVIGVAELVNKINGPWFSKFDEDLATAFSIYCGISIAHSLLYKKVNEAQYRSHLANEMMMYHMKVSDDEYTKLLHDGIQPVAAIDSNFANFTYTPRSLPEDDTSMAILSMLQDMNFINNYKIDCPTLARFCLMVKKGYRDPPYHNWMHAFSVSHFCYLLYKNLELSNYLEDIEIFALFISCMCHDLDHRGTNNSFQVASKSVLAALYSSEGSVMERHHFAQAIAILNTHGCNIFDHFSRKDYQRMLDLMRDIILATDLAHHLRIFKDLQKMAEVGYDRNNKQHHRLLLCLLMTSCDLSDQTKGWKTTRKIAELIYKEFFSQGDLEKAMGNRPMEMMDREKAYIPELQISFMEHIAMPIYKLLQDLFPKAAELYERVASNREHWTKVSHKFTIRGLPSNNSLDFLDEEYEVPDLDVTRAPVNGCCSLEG
Experimental: PDE 2 was purified from murine PC12 cells according to Whalin et al. (Molecular Pharmacol. 1991, 39, 711-717).
PC12 cells from Istituto Zooprofilattico Brescia (Italy) were maintained in […] flasks at 37° C. and 5% CO2 in DMEM containing 5% FCS, 15% horse serum, 1% penicillin, 1% streptomycin and 1% glutamine.
The cells were expanded paying attention to split them only at reached confluency.
After washing the cells were detached with 0.05% trypsin/0.02%EDTA and collected in a clean test tube.
After centrifugation, the cells were suspended in buffer containing Bis-Tris 20 mM, EDTA 2 mM, 2-mercaptoethanol 5 mM, leupeptin 1 μM, pepstatin A 1 μM, PMSF 100 μM, pH 6.5, and homogenised using a Polytron homogeniser.
After centrifugation, the supernatant fraction was applied to a UNO Q-12 column connected to a Biologic Chromatography system (FPLC, BIO RAD).
PDE 2 enzyme was eluted with a linear 0.05-1M sodium acetate gradient and elution fractions were collected for PDE 2 enzyme activity assay.
Fractions containing PDE 2 enzyme activity were pooled, dialysed overnight against distilled water and concentrated 10 times by an Amicon filtration system (using YM10 membrane filter).
Ethylene glycol was added to a final concentration of 30% v/v and the solution stored at −20° C.
Enzymatic activity was stable for several weeks under these conditions.
PDE 2 activity assay was performed using Scintillation Proximity Assay (SPA) Amersham kit consisting of tracer ^3H-cAMP, PDE assay buffer (10×solution: 500 mM TRIS/HCl pH 7.5, 83 mM MgCl2 and 17 mM EGTA) and Yttrium SPA PDE beads (containing 18 mM zinc sulphate).
(§1) The radioactivity of the beads was measured using a scintillation counter (Packard model MINAXI β TRI-CARB 4000 SERIES).

[1] = Solubility test by HPLC in PBS pH 7.4; type: physicochemical; settings: PBS pH 7.4, HPLC against standard, compounds of formula I; for solubility kinetic: PBS (phosphate buffer saline), aqueous buffer, kinetic from dmso stock
Experimental: HPLC method used to test the solubility.
Solubility test was performed by HPLC analysis (column 4.6×15 mm) water/0.1% TFA —CH3CN/0.06% TFA gradient) against standard.
A […] solution of the substance dissolved in DMSO was prepared.
In order to prepare the sample 190 μl of PBS (Phosphate Buffer Saline, pH 7.4) were added to 10 μl of the above solution; instead (while) in order to prepare the standard 190 μl of DMSO to other 10 μl of solution were added.

PDE 1 = target: T2, PDE 1 (Bos taurus, UniProt P14100); test: PDE 1 enzyme inhibition (SPA); type: biochemical; settings: PDE 1 from bovine heart (Sigma P0520); read-out: PDE 1 IC 50
T2 construct: partially purified from bovine heart; purchased Sigma P0520; host or cells: bovine heart
Experimental: Lyophilised PDE 1 enzyme, partially purified from bovine heart, was purchased from Sigma (P0520).
The enzyme consists of the PI fraction reported by Ho et al. (Biochim Biophys Acta, 1976, vol. 429(2), 461-473).
The lyophilised enzyme was reconstituted with 30% v/v ethylene glycol at a concentration of 500 µg/ml and stored at −20° C.
PDE 1 activity was determined using the Scintillation Proximity Assay (SPA) Amersham kit consisting of tracer ^3H-cAMP, PDE assay buffer (10×solution: 500 mM TRIS/HCl pH 7.5, 83 mM MgCl2 and 17 mM EGTA) and Yttrium SPA PDE beads (containing 18 mM zinc sulphate).
as §1

[2] = h-WB (whole human blood), LPS stimulated, read-out: IC 50 (nM) h-WB
[3] = whole human blood diluted 1:10, LPS 0.25 μg/ml, 24 hours, read-out: IC 50 (nM) h-WB 1:10

T2 sequence (P14100 1-514 isoform P14100-2): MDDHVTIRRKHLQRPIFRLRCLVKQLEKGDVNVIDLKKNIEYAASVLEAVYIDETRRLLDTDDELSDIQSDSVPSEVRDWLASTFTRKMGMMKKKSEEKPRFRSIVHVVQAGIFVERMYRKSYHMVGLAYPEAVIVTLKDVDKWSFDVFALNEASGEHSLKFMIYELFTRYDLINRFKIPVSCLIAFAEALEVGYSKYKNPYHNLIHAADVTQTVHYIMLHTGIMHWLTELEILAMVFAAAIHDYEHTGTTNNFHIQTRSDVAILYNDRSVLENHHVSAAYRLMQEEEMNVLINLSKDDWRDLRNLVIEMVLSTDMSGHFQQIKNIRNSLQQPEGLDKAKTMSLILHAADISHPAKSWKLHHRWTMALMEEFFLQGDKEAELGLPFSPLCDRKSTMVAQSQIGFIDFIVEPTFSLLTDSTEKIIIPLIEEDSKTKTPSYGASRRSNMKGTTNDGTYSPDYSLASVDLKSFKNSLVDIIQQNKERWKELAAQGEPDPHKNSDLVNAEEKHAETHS

Row | Compound | IC50 (TNFα release; [2]) | IC50 (TNFα release; [3]) | pIC50 (PDE 2) | solubility kinetic [1] | Sol. [1] | pIC50 (PDE 1)
1 | O=C(O)c1cccc(-c2nnc(Cc3c(Cl)cncc3Cl)c3ccc(OC(F)F)cc23)c1 [Compound 8, 3-[4-(3,5-dichloro-pyridin-4-ylmethyl)-7-difluoromethoxy-phthalazin-1-yl]-benzoic Acid] | 14300 nM | 1230 nM | < 5.00 | 470 µg/mL (≈ 987 µM) | 987.39 µM | < 5.00
2 | COc1ccc2c(Cc3c(Cl)cncc3Cl)nnc(-c3sccc3C(=O)O)c2c1 [Compound 10, 2-[4-(3,5-dichloro-pyridin-4-ylmethyl)-7-methoxy-phthalazin-1-yl]-thiophene-3-carboxylic Acid] | – | 18000 nM | < 5.00 | 253 µg/mL (≈ 567 µM) | 567.26 µM | < 5.00
3 | COc1ccc2c(Cc3c(Cl)cncc3Cl)nnc(-c3cccc(C(=O)O)c3)c2c1 [Compound 2, 3-[4-(3,5-dichloro-pyridin-4-ylmethyl)-7-methoxy-phthalazin-1-yl]-benzoic Acid] | 33000 nM | 2470 nM | < 5.00 | 216 µg/mL (≈ 491 µM) | 482.14 µM | < 5.00
